Measurements as given in patent US11447534B2, “Peptide complex with immunodulatory and anti-inflammatory function” (NATIONAL INSTITUTE OF IMMUNOLOGY, priority 2018, dated 2022).

Key:
Abeta42 = molecular target: T1, Abeta42 (Homo sapiens, UniProt P05067); assay: Abeta42 fibrillization in situ (TEM, Thioflavin T binding assay); format: biochemical; details: Abeta42 100 μM + Glu-OC 3 ng vs Abeta42 control, 8th hour
T1 construct: of Abeta 1-42 peptide; Molecular weight = 4514.1; purchased r-peptide
T1 sequence (P05067 672-713): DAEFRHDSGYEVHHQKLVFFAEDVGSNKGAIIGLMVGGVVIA
Method: For this study, different concentrations of Glu-OC viz. […] After keeping the samples for 5 minutes, the excess was washed off with ultrapure water and surplus sample and water were wicked away using absorbent paper. The samples were negatively stained using 1% uranyl acetate stain, dried and analyzed in a transmission electron microscope CM10 Philips operated at 80 kV. […] ThT assay measures the changes in fluorescence intensity of ThT upon binding to amyloid fibrils. […] The resulting ThT fluorescence intensities of samples were measured at an emission wavelength of 480 nm and excitation wavelength of 440 nm and 5 nm slit width using a Jobin Vyon Horiba Fluoromax-4 spectrofluorimeter. The inner filter effect was taken into account using the Equation: Fc=F×anti log[(Aex+Aem)/2] where Fc is the corrected flourescence and F is apparent fluorescence, Aex and Aem are the absorbances of the samples at excitation and emission wavelengths respectively.

macrophages = assay: Uptake of fluorescent CD36 ligands by macrophages (FACS); format: cell-based, murine; details: macrophages pre-treated half an hour, ligand 1 hour
Method: Briefly, 50 μl of 100 μM Abeta was pH adjusted to pH 9 with 5 microlitre of 1 M NaHCO3, followed by addition of 4 microlitre of the H2O solubilized reactive dye. Incubation at room temperature (˜22° C.) was performed for 15 min followed by immediate addition of 55 microlitre of the labeling reaction mixture onto a spin column packed with a 425 microlitre slurry of Biogel P-6 resin for removal of unincorporated dye. The resulting eluent (pH 7.4) was stored for up to 2 days at 4° C. or used immediately for cellular uptake experiments. Both ligands were exposed after pre-treatment of cells with A-O complex for half an hour. The ligands were exposed to cell cultures for 1 hour after which cells were either quenched with trypan blue (0.2%) or given acid wash.

EOC20 microglial cells = assay: F-actin confocal microscopy of unstimulated EOC20 microglia; format: cell-based; details: serum starved, 1 hour
Method: To determine the morphological changes in microglia upon exposure to A-O complex, F-actin confocal microscopy was performed. For that poly-L-lysine coated coverslips were placed in the 24 well culture dishes containing 1 ml of complete media and cells were seeded over the cover slips. […] Post treatment, the cell culture media was then removed and cells were washed thrice with 1×PBS (pH 7.4). Cells were fixed in 4% PFA for 10 min at room temperature and then washed thrice with 1×PBS (pH 7.4). Cells were then exposed to Phalloidin-actin (F-actin) antibody for 20 min in the dark. Thereafter, cells were washed twice with 1×PBS (pH7.4) and mounted using DAPI Fluormount (Invitrogen, Carlsbad, Calif., USA). Cells were imaged on a Zeiss LSM510 META laser-scanning confocal microscope. A PlanApochromat 63/1.4 oil-immersion DIC M27 objective (Zeiss) was used for image acquisition. [Concentration of Phalloidin-actin antibody: 300 U of Phalloidin-actin (Invitrogen, Carlsbad, USA) was dissolved in 1.5 ml methanol to yield a concentration of 200 U/ml or 6.6 μM. 1 U of phalloidin is equal to 5 μl of methanolic stock].

[1] = test system: co-culture of osteoblast (MC3T3-E1) and osteoclast (from RAW264.7); assay: Osteoblast-osteoclast co-culture, mRNA by Real Time PCR; format: cell-based, mouse; details: 24 hours of incubation, vs basal
Method: Effect of A-O complex on bone cells: To determine whether A-O complex modulated bone cells, A-O complex was added to a co-culture system of osteoblast and osteoclast. MC3T3-E1 sub-clone 4 (pre-osteoblast cell line derived from new born mouse calvaria purchased from American Type Culture Collection) were cultured in α-MEM (Invitrogen, USA) supplemented with 10% fetal bovine serum and 1% anti-anti (Invitrogen, USA). Osteoblasts within the 4th and 10th passages were used for this study. For cell culture experiments 2×10^6 cells were seeded in 60 mm Petri plates. To initiate differentiation, cells were treated with 10 mM β-glycerophosphate and 50 μg/ml ascorbic acid. Murine RAW264.7 (macrophage) cells were used for generating osteoclasts. The cells were maintained in RPMI 1640 media supplemented with glutamine (2 mM) and FBS (10%). No trypsination was performed and subculture was done using a cell scraper after cultures reached 65-70% confluency. For generation of osteoclasts from RAW264.7 cells, cells of density 12000 cells per cm^2 were stimulated with 25 ng per ml of RANKL (directly with seeding) for 72-96 hours after which large multinucleated cells are seen and confirmed using TRAP5b assay. […] Thereafter the co-culture was exposed to A-O complex and the mRNA levels of osteocalcin and IGF-1 were analyzed by Real Time PCR.

[2] = test system: carrageenan challenged mice; assay: Carrageenan induced nitrite production in serum (Griess reaction); format: in vivo, mouse; details: 50 microgram of A-O complex, 3rd hour post carrageenan challenge
Method: Measurement of nitric oxide in serum: Nitric oxide concentration in serum of carrageenan challenged mice with or without treatment was determined by the Griess reaction as an indicator of nitric oxide production as previously reported by Prado (2002) [Prado W A, Schiavon V F, Cunha F Q. Dual effect of local application of nitric oxide donors in a model of incision pain in rats. Eur J Pharmacol. 2002; 441:57-65]. Briefly, 100 microlitre of sera and 100 microlitre of Griess reagent (mix of 2% sulphanilamide in 5% phosphoric acid and 0.2% N(1-naphthyl) ethylenediamine hydrochloride) were mixed in 96-well ELISA plate and Absorbance was read at 550 nm. The concentration of nitrite was determined using a standard curve of sodium nitrite.

**Q.** “A-O complex: peptide complex of 100 μM Abeta1-42 (SEQ ID NO: 1) and 3 ng Glu-OC (SEQ ID NO: 2), incubated at 37° C. for 4 hours” was tested. Which ThT fluorescence emission (Abeta42) did it give?
**A.** Its ThT fluorescence emission is “high enhancement of fluorescence emission of ThT”.

**Q.** What about the “uptake of mutant Abeta42 (mutant Aβ)” value (macrophages) of the same substance?
**A.** Its value is “facilitates the uptake”.

**Q.** And the “uptake of oxidized-lipoprotein (oxLDL)” value (macrophages)?
**A.** The value was “facilitates the uptake”.

**Q.** And the “microglia morphology (F-actin)” value (EOC20 microglial cells)?
**A.** Its value is “rounded morphology with projections indicative of activation”.

**Q.** What about the “mRNA transcripts of IGF-1” value [1] of the same substance?
**A.** Its value is “significantly higher”.

**Q.** What about the “mRNA transcripts of osteocalcin” value [1] of the same substance?
**A.** The value was “significantly higher”.

**Q.** What about the serum nitrite level [2] of the same substance?
**A.** The serum nitrite level was “maximal efficiency to reduce serum nitrite level”.
